Experimental data taken from US20100022514A1, “Heterocycle Compounds and Methods of Use Thereof” (NORVARTIS AG, priority 2006, published 2010).
pIC50: −log10 of the molar value.

Tests used:
[1] = target: T1, HDAC-1 (Homo sapiens, UniProt Q13547); assay: Deacetylase fluorescence assay (HDAC-1); assay type: biochemical; settings: read-out: HDAC-1 IC50
T1 construct: made in house
Method: Conventional methods are used to express deacetylase enzymes and purify them from lysed cells. The following example describes an exemplary procedure, however equivalent procedures are within the scope of the invention.
The cell line used is a derivative of 293 cells overexpressing a fusion of the gene encoding each deacetylase protein with a nucleotide sequence encoding the Flag marker.
Cells are grown in Optimem, 2% Fetal Calf Serum, Pen/Strep. For enzyme preparation, Lysis buffer (IPLS) is 50 mM Tris-HCl, pH 7.5, 120 mM NaCl, 0.5 mM EDTA and 0.5% Nonidet P-40, to which is added one tablet of Protease inhibitors (Roche 11836170001) per 10 ml buffer. Other buffers are IPHS, which is IPLS containing 1 M NaCl; TBS (Sigma #T5912) dilute 10× stock to 1× with dH2O; HD buffer: 10 mM Tris pH 8.0 (1M Stock) 10 mM NaCl (5M Stock), 10% glycerol, and for dialysis: 400 μM PMSF is added (for 2 L: use 8 ml 100 mM Stock). Protease inhibitors (Complete mini, Boehringer Mannheim), 1 tablet/10 mL are added to all buffers but not used in buffers for enzyme assays.
Cells are harvested without using trypsin, and most cells are obtained easily in PBS, with gentle striking or agitation of flasks if necessary. More adherent cells are scraped in PBS. Cells are grown in 500 cm^2 trays, from which about half of the media is aspirated (50 ml total), then cells are scraped in the rest of the media and transferred to a centrifuge tube. Trays are washed with 25 ml cold PBS, scraped again to collect additional cells, and centrifuged at 1500 rpm at 4° C. for 5 min. Cells are washed at least 3 times in PBS to remove growth media, pelleting cells after each wash by centrifugation at 1500 rpm for 5 minutes. After washing, PBS is removed and the resulting cell pellet frozen at −80° C. for storage prior to purification.
For purification, cells are resuspended in lysis buffer, 12 ml of IPLS for cells collected from 10 500 cm trays. Cells are lysed at 4° C. for 3 hrs with rocking, and debris is removed by centrifugation for 20 min at 17,000 rpm in 30 ml centrifuge tubes. If supernatant is not clear afterward, centrifugation of the supernatant is repeated. Protein concentration of the whole cell lysate is determined (generally in the range of about 2-5 mg/ml).
For immunoprecipitation per mg of protein, 15 μL of anti-Flag M2-Agarose Affinity beads (Sigma #A2220) is used. Beads are prepared by washing 3 times with 10× bead volume of PBS and 1 time with IPLS, with centrifugation of the washes at 1500 rpm for 5 min. Whole cell lysate is incubated with the Ab-beads overnight at 4° C. Then beads are centrifuged and washed in 5× volume of the following buffers: three times in IPLS (30 sec at 4° C., spin at 1500 RPM for 5 min); three times in IPHS; and three times in TBS buffer. After each centrifugation, the supernatant is aspirated, leaving the pellet as dry as possible but avoiding sucking up any of the beads.
To elute the enzyme, beads are resuspended in 5× bead volume of TBS with protease inhibitor (Roche 11836170001) 1 tablet/10 mL. Enzyme is eluted with 400 μg/mL Flag peptide (Sigma #F-3290) for 3 hrs at 4° C. on rotator. Then beads are centrifuged, and the supernatant is transferred to a new tube to which is added 1/10 volume of glycerol. The supernatant is transferred to a dialysis cassette (Pierce #66410) using a 3 cc syringe and 18 G needle, and is dialyze sup in 2 L HD buffer for 2 hrs at 4° C. (1 L/hour). The resulting purified deacetylase is divided into aliquots (300 μL/tube), is snap frozen in dry ice bath, and is stored at −80° C.
For assay of deacetylase an assay based on Deacetylase Fluorescent Activity Assay/Drug Discovery Kit (BioMol # AK500) is used, however any equivalent deacetylase assay is within the scope of the invention.
The Fluorescent Assay Buffer (FAB) contains: 25 mM Tris-HCl, pH 8.0, 137 mM NaCl, 2.7 mM KCl and 1 mM MgCl2. […]

[2] = test system: p21 promoter (p21-luc) in H1299 cells; assay: p21 promoter luciferase assay using stably transfected p21-luc in H1299 cells; assay type: cell-based; settings: Homo sapiens, NCI-H1299
Method: The cell lines used are derived from H1299 (p21-luc). The growth media used is RPMI 1640, 10% FBS, 1% Pen/Strep and the selection media added is 500 μg/mL Geneticin (Gibco). The buffer used is 5× cell culture lysis buffer (Promega #E1531), stored at −20 C and the Luciferase assay reagent (Promega #E1483) is stored at −70° C. The results of the assay are analyzed using Wallac Software.
To assay Luciferase, the cell culture medium is removed after one day of growth and the flasks are washed once with PBS. The cells are trypsinized in 20 mL of media and the trypsin is neutralized. The cells are counted (0.5-1 mL) on a Vi-Cell XR cell viability analyzer.
Cells are then diluted to a concentration of approximately 5000 cells/200 μL, and 190 μL samples are aliquoted into each well of a Costar white 96-well TC treated white bottom plate with lid (Costar #3917). Plates are then incubated overnight at 37 C.
After a further day, a sample of the compound is added to the wells for assay.
After a further day, the cells are lysed and the luciferase activity of the lysed cells is measured. Each well is washed twice with PBS and 20 μL/well of 1× cell culture lysis buffer (dilute 5× to 1× in distilled water) is added to each well. The microtiter plates are then shaken on a microtiter plate shaker for 20 minutes at room temperate at a speed setting of 5-6. After removal from the shaker, 100 μL of Luciferase Reagent is added to each well. Each microtiter plate is then read on Wallac Envision instrument.

T1 sequence (Q13547 whole entry): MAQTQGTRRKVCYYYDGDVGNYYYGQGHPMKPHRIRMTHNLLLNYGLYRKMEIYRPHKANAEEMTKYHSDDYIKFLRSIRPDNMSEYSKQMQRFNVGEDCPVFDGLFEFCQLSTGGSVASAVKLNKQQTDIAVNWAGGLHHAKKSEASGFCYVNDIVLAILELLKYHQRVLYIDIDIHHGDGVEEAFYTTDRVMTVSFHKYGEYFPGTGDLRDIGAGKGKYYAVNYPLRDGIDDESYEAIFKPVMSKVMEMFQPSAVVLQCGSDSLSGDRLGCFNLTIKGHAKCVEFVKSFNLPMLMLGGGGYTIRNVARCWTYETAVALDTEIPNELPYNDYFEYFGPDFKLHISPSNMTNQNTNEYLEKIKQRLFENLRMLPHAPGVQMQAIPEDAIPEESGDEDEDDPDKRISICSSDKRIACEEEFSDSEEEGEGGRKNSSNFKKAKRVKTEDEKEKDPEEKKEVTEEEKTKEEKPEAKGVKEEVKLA

| pIC50 [1] | Structure (SMILES) | AC50 [2] [nM] |
| --- | --- | --- |
| 6.00 to 7.00 | O=C(/C=C/c1ccc2c(c1)CN(Cc1ccccc1)CC2)NO [Example 51, (E)-3-(2-Benzyl-1,2,3,4-tetrahydro-isoquinolin-7-yl)-N-hydroxy-acrylamide] | > 1000 |
| 6.00 to 7.00 | Cc1nn(C)c(C)c1CN1CCc2ccc(/C=C/C(=O)NO)cc2C1 [Example 52, (E)-N-Hydroxy-3-[2-(1,3,5-trimethyl-1H-pyrazol-4-ylmethyl)-1,2,3,4-tetrahydro-isoquinolin-7-yl]-acrylamide] | > 1000 |
| > 7.00 | CN(C)c1ccc(C(=O)N2CCc3ccc(/C=C/C(=O)NO)cc3C2)cc1 [Example 53, (E)-3-[2-(4-Dimethylamino-benzoyl)-1,2,3,4-tetrahydro-isoquinolin-7-yl]-N-hydroxy-acrylamide] | > 1000 |
| 6.00 to 7.00 | O=C(/C=C/c1ccc2c(c1)CN(S(=O)(=O)c1ccccc1)CC2)NO [Example 54, (E)-3-(2-Benzenesulfonyl-1,2,3,4-tetrahydro-isoquinolin-7-yl)-N-hydroxy-acrylamide] | > 1000 |
| 6.00 to 7.00 | COc1cccc(S(=O)(=O)N2CCc3ccc(/C=C/C(=O)NO)cc3C2)c1 [Example 55, (E)-N-Hydroxy-3-[2-(3-methoxy-benzenesulfonyl)-1,2,3,4-tetrahydro-isoquinolin-7-yl]-acrylamide] | > 1000 |
| 6.00 to 7.00 | COc1ccc(S(=O)(=O)N2CCc3ccc(/C=C/C(=O)NO)cc3C2)cc1 [Example 56, (E)-N-Hydroxy-3-[2-(4-methoxy-benzenesulfonyl)-1,2,3,4-tetrahydro-isoquinolin-7-yl]-acrylamide] | > 1000 |
| > 7.00 | COc1ccc(C(=O)N2CCc3ccc(/C=C/C(=O)NO)cc3C2)cc1 [Example 57, (E)-N-Hydroxy-3-[2-(4-methoxy-benzoyl)-1,2,3,4-tetrahydro-isoquinolin-7-yl]-acrylamide] | > 1000 |
| 6.00 to 7.00 | COc1ccc(C(=O)N2CCc3ccc(CCC(=O)NO)cc3C2)cc1 [Example 58, N-Hydroxy-3-[2-(4-methoxy-benzoyl)-1,2,3,4-tetrahydro-isoquinolin-7-yl]-propionamide] | > 1000 |
| 6.00 to 7.00 | COc1cccc(C(=O)N2CCc3ccc(/C=C/C(=O)NO)cc3C2)c1 [Example 59, (E)-N-Hydroxy-3-[2-(3-methoxy-benzoyl)-1,2,3,4-tetrahydro-isoquinolin-7-yl]-acrylamide] | > 1000 |
| 6.00 to 7.00 | COc1cccc(C(=O)N2CCc3ccc(CCC(=O)NO)cc3C2)c1 [Example 60, N-Hydroxy-3-[2-(3-methoxy-benzoyl)-1,2,3,4-tetrahydro-isoquinolin-7-yl]-propionamide] | > 1000 |
| > 7.00 | Cc1[nH]c2ccccc2c1CC(=O)N1CCc2ccc(/C=C/C(=O)NO)cc2C1 [Example 61, (E)-N-Hydroxy-3-{2-[2-(2-methyl-1H-indol-3-yl)-acetyl]-1,2,3,4-tetrahydro-isoquinolin-7-yl}-acrylamide] | > 1000 |

The next lines start with the molecule.

| Structure (SMILES) | pIC50 [1] | AC50 [2] [nM] |
| --- | --- | --- |
| Cc1nn2ccccc2c1CCN1CCc2ccc(/C=C/C(=O)NO)cc2C1 [Example 40, (E)-N-Hydroxy-3-{2-[2-(2-methyl-pyrazolo[1,5-a]pyridin-3-yl)-ethyl]-1,2,3,4-tetrahydro-isoquinolin-7-yl}-acrylamide] | > 7.00 | > 1000 |
| Cc1[nH]c2ccccc2c1CCN1CCCc2cc(/C=C/C(=O)NO)ccc2C1 [Example 41, (E)-N-Hydroxy-3-{2-[2-(2-methyl-1H-indol-3-yl)-ethyl]-2,3,4,5-tetrahydro-1H-benzo[c]azepin-7-yl}-acrylamide] | > 7.00 | > 1000 |
| CC(C)(C)c1[nH]c2ccccc2c1CCN1CCc2ccc(/C=C/C(=O)NO)cc2C1 [Example 42, (E)-3-{2-[2-(2-tert-Butyl-1H-indol-3-yl)-ethyl]-1,2,3,4-tetrahydro-isoquinolin-7-yl}-N-hydroxy-acrylamide] | > 7.00 | 100 to 1000 |
| CC(C)(C)c1[nH]c2ncccc2c1CCN1CCc2ccc(/C=C/C(=O)NO)cc2C1 [Example 43, (E)-3-{2-[2-(2-tert-Butyl-1H-pyrrolo[2,3-b]pyridin-3-yl)-ethyl]-1,2,3,4-tetrahydro-isoquinolin-7-yl}-N-hydroxy-acrylamide] | > 7.00 | > 1000 |
| O=C(/C=C/c1ccc2c(c1)CN(CCc1ccccc1)CC2)NO [Example 44, (E)-N-Hydroxy-3-(2-phenethyl-1,2,3,4-tetrahydro-isoquinolin-7-yl)-acrylamide] | 6.00 to 7.00 | > 1000 |
| O=C(/C=C/c1ccc2c(c1)CN(CCC1CCCCC1)CC2)NO [Example 45, (E)-3-[2-(2-Cyclohexyl-ethyl)-1,2,3,4-tetrahydro-isoquinolin-7-yl]-N-hydroxy-acrylamide] | 6.00 to 7.00 | > 1000 |
| Cn1cc(CCN2CCc3ccc(/C=C/C(=O)NO)cc3C2)c(-c2ccccc2)n1 [Example 46, (E)-N-Hydroxy-3-{2-[2-(1-methyl-3-phenyl-1H-pyrazol-4-yl)-ethyl]-1,2,3,4-tetrahydro-isoquinolin-7-yl}-acrylamide] | 6.00 to 7.00 | > 1000 |
| O=C(/C=C/c1ccc2c(c1)CN(CCc1c[nH]nc1-c1ccccc1)CC2)NO [Example 47, (E)-N-Hydroxy-3-{2-[2-(3-phenyl-1H-pyrazol-4-yl)-ethyl]-1,2,3,4-tetrahydro-isoquinolin-7-yl}-acrylamide] | 6.00 to 7.00 | > 1000 |
| O=C(/C=C/c1ccc2c(c1)CN(CCc1ccnn1-c1ccccc1)CC2)NO [Example 48, (E)-N-Hydroxy-3-{2-[2-(2-phenyl-2H-pyrazol-3-yl)-ethyl]-1,2,3,4-tetrahydro-isoquinolin-7-yl}-acrylamide] | 6.00 to 7.00 | > 1000 |
| Cc1c(CCN2CCc3ccc(/C=C/C(=O)NO)cc3C2)cnn1-c1ccccc1 [Example 49, (E)-N-Hydroxy-3-{2-[2-(5-methyl-1-phenyl-1H-pyrazol-4-yl)-ethyl]-1,2,3,4-tetrahydro-isoquinolin-7-yl}-acrylamide] | 6.00 to 7.00 | > 1000 |
| Cc1nn(C)c(C)c1CCN1CCc2ccc(/C=C/C(=O)NO)cc2C1 [Example 50, (E)-N-Hydroxy-3-{2-[2-(1,3,5-trimethyl-1H-pyrazol-4-yl)-ethyl]-1,2,3,4-tetrahydro-isoquinolin-7-yl}-acrylamide] | 6.00 to 7.00 | > 1000 |
